Source: BindingDB's records for patent US8829190 (Leo Pharma, 2014)

Molecular target: cAMP-specific 3',5'-cyclic phosphodiesterase 4D (Homo sapiens, UniProt Q08499)
Test: Binding Assay
Procedure: Human recombinant PDE4 (Gene bank accession no NM006203) was incubated for 1 hour with the test compound at concentrations up to 10 μM, with cAMP (1x10-5M), and with a low amount (0.021 MBq) of radioactively labelled cAMP. At the end of the incubation, the cleavage of the substrate was evaluated by the binding of the AMP product to SPA beads, which generate chemo luminescence when bound to the radioactive tracer. The AMP product inhibited the binding of the radioactive tracer to the beads, and the luminescent signal was competed.

Chain of cAMP-specific 3',5'-cyclic phosphodiesterase 4D (Q08499 whole entry): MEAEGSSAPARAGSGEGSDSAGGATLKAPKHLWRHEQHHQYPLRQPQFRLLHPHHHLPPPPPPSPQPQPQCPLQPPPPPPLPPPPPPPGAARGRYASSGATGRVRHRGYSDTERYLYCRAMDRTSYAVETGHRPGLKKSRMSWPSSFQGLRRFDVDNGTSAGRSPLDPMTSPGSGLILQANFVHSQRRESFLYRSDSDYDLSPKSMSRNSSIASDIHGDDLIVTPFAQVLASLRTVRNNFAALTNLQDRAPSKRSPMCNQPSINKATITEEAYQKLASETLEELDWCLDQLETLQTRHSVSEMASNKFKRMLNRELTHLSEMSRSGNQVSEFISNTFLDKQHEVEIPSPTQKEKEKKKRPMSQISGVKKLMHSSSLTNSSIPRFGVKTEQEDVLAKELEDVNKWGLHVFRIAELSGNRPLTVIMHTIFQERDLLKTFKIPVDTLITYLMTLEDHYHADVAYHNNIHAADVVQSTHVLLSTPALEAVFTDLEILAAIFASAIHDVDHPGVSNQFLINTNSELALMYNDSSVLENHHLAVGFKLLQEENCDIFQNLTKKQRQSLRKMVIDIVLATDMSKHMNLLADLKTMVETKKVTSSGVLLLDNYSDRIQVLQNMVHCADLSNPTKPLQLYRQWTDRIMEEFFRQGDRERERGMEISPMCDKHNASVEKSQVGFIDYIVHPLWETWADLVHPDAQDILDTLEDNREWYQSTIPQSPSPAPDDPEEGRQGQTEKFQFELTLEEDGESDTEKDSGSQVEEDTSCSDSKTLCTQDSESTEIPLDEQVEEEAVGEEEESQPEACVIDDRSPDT

- IC50: 0.046 µM
SMILES: COc1ccc(C(=O)Cc2ccccc2Cl)n2nc(C3CC3)nc12 [US8829190, 127]
